The results in this text go back to PubChem BioAssay (NCI).

Among the test systems are SK-OV-3 ovarian; COLO 205 colon; HT29 colon; SF-295 CNS; SR leukemia; MDA-MB-231 breast; HOP-62 NSCLC; CCRF-CEM leukemia; BT-549 breast; HL-60(TB) leukemia.
What all share (assay): inhibition of tumour cell growth, NCI panel, 48 h

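Results reflect a 48-hour exposure of cells in 96-well plates to compound at five concentrations. GI50 marks 50% less growth. Definition used: TGI = concentration required for complete inhibition of growth.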

With `Cc1ccc(S(=O)(=O)N/N=C/C(Br)=C(/Br)C(=O)O)cc1`, the TGI was determined as 34.8 µM in the test with SK-OV-3 ovarian; 13.3 µM with COLO 205 colon; 26.8 µM in the test on HT29 colon; 36.3 µM with SF-295 CNS; 1.7 µM with SR leukemia; 36 µM with MDA-MB-231 breast. Moreover, the TGI stood at 43.6 µM with HOP-62 NSCLC, 9.67 µM with CCRF-CEM leukemia, 20.7 µM in the test with BT-549 breast and 5.12 µM in the test with HL-60(TB) leukemia.
`COc1cc(O)c(C(=O)/C=C/c2ccccc2)c(OC)c1`: the TGI in the test with SK-OV-3 ovarian came out at 25.6 µM; in the test with COLO 205 colon it was 28 µM; in the test with HT29 colon it was 22.4 µM; in the test on SF-295 CNS it was 26.9 µM; in the test on SR leukemia it was 6.05 µM; in the test with MDA-MB-231 breast it was 24.2 µM. Further, the TGI in the test on HOP-62 NSCLC is 38.5 µM; in the test on CCRF-CEM leukemia, 7.22 µM; in the test on BT-549 breast, 16.2 µM; with HL-60(TB) leukemia, 5.17 µM.
Take `COC(=O)c1cnc(=O)n(C2CC(O)C(CO)O2)c1` (centres undefined): the GI50 in the test on SK-OV-3 ovarian, with COLO 205 colon, with HT29 colon, in the test on SF-295 CNS, with SR leukemia and in the test on MDA-MB-231 breast was above 100 µM in each case. Also, the GI50 with HOP-62 NSCLC, in the test with BT-549 breast and in the test on HL-60(TB) leukemia was above 100 µM in each case. For the same molecule, the TGI in the test with SK-OV-3 ovarian, in the test on COLO 205 colon, with HT29 colon, with SF-295 CNS, in the test with SR leukemia and with MDA-MB-231 breast was above 100 µM each time. For the same molecule, the TGI in the test with HOP-62 NSCLC, with CCRF-CEM leukemia, with BT-549 breast and with HL-60(TB) leukemia was above 100 µM each time.
`O=[N+]([O-])c1ccc(Sc2ncccn2)c([N+](=O)[O-])c1`: the GI50 in the test with SK-OV-3 ovarian was 12.5 µM; with COLO 205 colon, 3.11 µM; in the test on HT29 colon it was 3.39 µM; with SF-295 CNS it was 5.93 µM; in the test on SR leukemia, 1.2 µM; with MDA-MB-231 breast, 5.31 µM. For the same molecule, the GI50 with HOP-62 NSCLC was 15.1 µM; with CCRF-CEM leukemia, 2.04 µM; with BT-549 breast it was 1.27 µM; in the test with HL-60(TB) leukemia, 2.37 µM. Besides, the TGI worked out at 25.2 µM in the test with SK-OV-3 ovarian; 10.8 µM in the test on COLO 205 colon; 12.9 µM in the test on HT29 colon; 20 µM with SF-295 CNS; 17.9 µM in the test on SR leukemia; 17.1 µM in the test with MDA-MB-231 breast. Also, the TGI in the test on HOP-62 NSCLC was found to be 30.1 µM; with CCRF-CEM leukemia, 5.5 µM; with BT-549 breast, 4.19 µM; in the test on HL-60(TB) leukemia it was 15.8 µM.
As for `Cn1cc(-c2ccc(=O)n(Cc3cccc(-c4ncc(OCCN5CCOCC5)cn4)c3)n2)cn1`, the GI50 in the test with SK-OV-3 ovarian was above 100 µM; in the test on COLO 205 colon, 53.7 µM; in the test on HT29 colon it was above 100 µM; in the test on SF-295 CNS, 0.49 µM; with SR leukemia it was 76.4 µM; in the test on MDA-MB-231 breast it was above 78 µM. The GI50 with HOP-62 NSCLC was above 62.7 µM; with CCRF-CEM leukemia, 82.1 µM; with BT-549 breast, 32.1 µM; with HL-60(TB) leukemia it was 74.1 µM. The TGI with SK-OV-3 ovarian, in the test with COLO 205 colon, in the test on HT29 colon, in the test on SF-295 CNS, with SR leukemia and with MDA-MB-231 breast was above 100 µM each time. Besides, the TGI in the test with HOP-62 NSCLC, with CCRF-CEM leukemia, with BT-549 breast and with HL-60(TB) leukemia was above 100 µM throughout.
For `COc1cc[nH]c1/C=C1\C(=O)Nc2ccc(F)c(C#C[C@@H](O)[C@@H](N)[C@@H](C)O)c21`, the GI50 with SK-OV-3 ovarian is 0.744 µM; with COLO 205 colon it was 0.303 µM; in the test with HT29 colon, 0.448 µM; with SF-295 CNS it was 0.689 µM; with SR leukemia, 0.114 µM; in the test with MDA-MB-231 breast, 0.485 µM. Moreover, the GI50 in the test on HOP-62 NSCLC was 0.647 µM; in the test on CCRF-CEM leukemia it was 0.709 µM; in the test on BT-549 breast, 0.642 µM; with HL-60(TB) leukemia, 0.42 µM. In addition, the TGI came to 9.65 µM with SK-OV-3 ovarian; 0.743 µM in the test with COLO 205 colon; 1.49 µM with HT29 colon; 3.44 µM in the test with SF-295 CNS; 1.95 µM with SR leukemia; 2.37 µM with MDA-MB-231 breast. For the same molecule, the TGI stood at 2 µM with HOP-62 NSCLC, 2.35 µM with CCRF-CEM leukemia, 1.65 µM in the test with BT-549 breast and 1.55 µM in the test with HL-60(TB) leukemia.
For `CCCCCCCCCCCCc1ccc(C(=O)/C=C/C(=O)O)cc1`, the GI50 was 16.2 µM in the test with SK-OV-3 ovarian; 1.83 µM in the test with COLO 205 colon; 1.81 µM with HT29 colon; 12.5 µM in the test with SF-295 CNS; 0.423 µM in the test on SR leukemia; 1.85 µM in the test on MDA-MB-231 breast. Further, the GI50 is 14 µM in the test with HOP-62 NSCLC, 0.547 µM in the test with CCRF-CEM leukemia, 1.91 µM in the test on BT-549 breast and 1.56 µM with HL-60(TB) leukemia. The TGI with SK-OV-3 ovarian was determined as 30.4 µM; with COLO 205 colon, 3.84 µM; in the test on HT29 colon, 4 µM; in the test with SF-295 CNS, 25.5 µM; with SR leukemia it was 3.07 µM; with MDA-MB-231 breast, 4.5 µM. Besides, the TGI in the test on HOP-62 NSCLC came to 29.9 µM; in the test with CCRF-CEM leukemia, 5.29 µM; in the test with BT-549 breast, 5.33 µM; with HL-60(TB) leukemia it was 3.58 µM.
On to `COc1ccc(-c2cc(-c3ccc(Nc4nc(Nc5ccc(Cl)cc5)nc(Nc5ccc(Cl)cc5)n4)cc3)nc(N)c2C#N)cc1`, for which the GI50 is 8.71 µM in the test with SK-OV-3 ovarian; 0.865 µM with COLO 205 colon; 2.25 µM in the test with HT29 colon; 1.68 µM in the test with SF-295 CNS; 0.485 µM with SR leukemia; 1.54 µM in the test on MDA-MB-231 breast. Further, the GI50 was 11.9 µM in the test on HOP-62 NSCLC, 0.929 µM in the test on CCRF-CEM leukemia, 3.06 µM in the test with BT-549 breast and 0.866 µM in the test with HL-60(TB) leukemia. The TGI is above 28.1 µM with SK-OV-3 ovarian; 2.75 µM in the test on COLO 205 colon; 13 µM in the test on HT29 colon; 13.4 µM in the test on SF-295 CNS; 3.29 µM with SR leukemia; 3.23 µM with MDA-MB-231 breast. For the same molecule, the TGI is above 42.3 µM in the test on HOP-62 NSCLC, above 27.6 µM in the test with CCRF-CEM leukemia, 9.11 µM in the test with BT-549 breast and 4.59 µM in the test on HL-60(TB) leukemia.
